# Data from patent US20100249138A1, “MPZP: A SMALL MOLECULE CORTICOTROPIN-RELEASING FACTOR TYPE 1 RECEPTOR (CRF1) ANTOGONIST” (priority 2007, published 2010).
# Read-outs that look alike come from different tables or passages of the source. No end group written: not given here.
# Tests used:
# [1] = test system: cocaine self-administration; conditions: cited from earlier work
# [2] = test system: cocaine-induced conditioned place preference; conditions: rats; cited from earlier work
# [3] = test system: rat pituitary corticotropes; conditions: cited from earlier work
# [4] = test system: plasma corticosterone; conditions: rats; cited from earlier work
# [5] = target: T1, CRF1 receptors (Rattus norvegicus, UniProt P35353); assay: [125I]-Tyr0-sauvagine competition binding, rat cerebellar membrane homogenates; parameters: from tissue; host or cells: rat cerebellum, membrane homogenate; conditions: six independent experiments, read-out: PIC50, displacement of specific [125I]-Tyr0-sauvagine binding (converted)
# T1 sequence (P35353 24-415): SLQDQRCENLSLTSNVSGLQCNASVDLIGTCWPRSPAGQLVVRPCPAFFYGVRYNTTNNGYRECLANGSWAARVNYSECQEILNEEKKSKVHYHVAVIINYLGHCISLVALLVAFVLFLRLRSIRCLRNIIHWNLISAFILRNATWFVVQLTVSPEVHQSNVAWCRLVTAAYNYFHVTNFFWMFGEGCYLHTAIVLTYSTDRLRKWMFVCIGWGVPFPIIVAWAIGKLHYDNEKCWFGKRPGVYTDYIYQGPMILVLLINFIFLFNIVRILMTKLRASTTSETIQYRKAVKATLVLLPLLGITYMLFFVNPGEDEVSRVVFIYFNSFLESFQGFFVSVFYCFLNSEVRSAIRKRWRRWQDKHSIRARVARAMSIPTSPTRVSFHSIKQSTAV
# Experimental: Binding activity of MPZP was determined in a competition assay using […] (2200 Ci/mmol; Perkin Elmer, Waltham, Mass.) as the radioligand. Cerebellum was homogenized in homogenizing buffer (Dulbecco's phosphate-buffered saline [PBS]:1.5 mM KH2PO4, 8.1 mM Na2HPO4, 2.7 mM KCl, 138 mM NaCl, pH 7.2, supplemented with 10 mM MgCl2, 2 mM EGTA) using a Polytron (Dispersing and Mixing Technology, Kinematica, Littau-Lucerne, Switzerland) at setting 6 for 2×15 seconds on ice. The homogenate was centrifuged at 45,000×g for 20 minutes at 4° C. The pellet was resuspended and spun at 45,000×g for 20 minutes at 4° C. The final pellet was resuspended in assay buffer (homogenizing buffer supplemented with protease inhibitor; 1 tablet/10 ml; Sigma CAT#58829-20TAB, St. Louis, Mo., pH 7.4) using a Polytron.
# Med. Chem. (2000) 8:181-189], whose structural formula is shown below.
# Total binding was determined using assay buffer in lieu of a CRF1 antagonist, and nonspecific binding was determined in the presence of 1 μM unlabeled sauvagine. The final radioligand concentration was 0.2 nM, and the reaction was incubated at room temperature for 2 hours. […] The pellet-containing tip was cut off and counted in an automated 10-detector gamma counter (MicroMedic Apex, ICN Biomedical, Costa Mesa, Calif.) at 80% efficiency. […]
# [6] = test system: precipitated-withdrawal induced anxiety-like behavior; assay: Defensive burying test during mecamylamine-precipitated nicotine withdrawal; type: in vivo, rat; conditions: for Burying / Freezing / Grooming / Latency to bury / Rearing / Resting: Vehicle + Mecamylamine
# Experimental: Nicotine hydrogen tartrate salt (Sigma, Natick) was dissolved in saline at pH 7.4 and experimenter-administered via minipump or self-administered via indwelling jugular catheter. Doses are expressed as free base. Mecamylamine (Sigma; Natick, Mass.) was dissolved in saline and administered i.p. (1 ml/kg). The CRF1 antagonist (N,N-bis(2-methoxyethyl)-3-(4-methoxy-2-methylphenyl)-2,5-dimethyl-pyrazolo-[1,5α]pyrimidin-7-amine, or MPZP) was synthesized at The Scripps Research Institute by Dr. P. Wirshing, dissolved in 20% hydroxypropyl beta-cyclodextrin (Cavitron, Cargill) in isotonic saline at pH 4.5 and administered s.c. (2 ml/kg, 45 to 60 min before testing). Rat/human CRF was supplied by Dr. Jean Rivier, The Salk Institute. CRF was dissolved in 1× PBS (pH 7.4) and prepared fresh few minutes before intracerebral injection. The doses and time of injections were selected based on previous studies [Richardson et al., Program No. 783. 4 Neuroscience Meeting Planner. Atlanta, Ga.: Society for Neuroscience, OnlineI (2006); Specio et al., Program No. 777. 11 Neuroscience Meeting Planner. Washington, D.C.: Society for Neuroscience, Online (2004)].
# Rats were subcutaneously implanted with osmotic minipumps delivering either saline (n=33) or nicotine (n=31) (3.16 mg/kg/day, free base, s.c.) as described above. After 14 days of pump exposure, testing was performed 5-8 hours into the dark cycle in a standard cage with 2 inches of bedding (wood shavings) along the bottom and a small hole centered in one side one inch above the bedding to accommodate the shock-probe. Rats were habituated (45 minutes) to the test cage for 2 days prior to testing. On the test day, mecamylamine or its vehicle were administered 30 minutes before behavioral testing, and the CRF1 antagonist or its vehicle were administered 45 minutes before behavioral testing (n=7-9 per group). On contact with the probe and shock delivery (using a Coulbourn precision shocker, 1.5 mA, AC, <1 s), verified by a startle response, the probe was deactivated. The latency and duration of probe-directed burying, rearing, resting, grooming, and freezing were measured from videotape over a 10 minutes period by an experimenter blind to the subject treatment condition using a computer program.
# [7] = test system: extracellular CRF-L-IR in the central nucleus of the amygdala; assay: In vivo microdialysis and radioimmunoassay of CRF-like immunoreactivity in the central nucleus of the amygdala; parameters: species or system rat; conditions: mecamylamine 1.5 mg/kg i.p.
# Experimental: The changes in interstitial levels of CRF-like-immunoreactivity (CRF-L-IR) in the central nucleus of the amygdala were examined during mecamylamine-precipitated withdrawal (1.5 mg/kg, ip). Rats were subcutaneously implanted with osmotic minipumps (model 2m12, 14 days, 5 μL/hour; Durect Corporation, Palo Alto, Calif.) delivering either saline (non-dependent, n=5) or nicotine (nicotine-dependent, n=7) (3.16 mg/kg/day, free base, s.c.) and a microdialysis guide cannula (SciPro Inc., Sanborn N.Y., USA) stereotaxically positioned 1 mm above the central nucleus of the amygdala using the following coordinates (AP −3.3 mm; ML ±4.2 mm; V −6.5 mm, from dura with flat skull). After 14 days of pump exposure, a microdialysis probe (1 mm PES membrane, 15 kDA MW cutoff; SciPro Inc., Sanborn N.Y., USA) was lowered into the guide cannula and allowed to equilibrate for 12 hours (1 μl/min flow rate, artificial cerebrospinal fluid). […]
# Dialysate CRF-like immunoreactivity was quantified with a sensitive and specific solid-phase radioimmunoassay (RIA) adapted from Zorrilla et al. Psychopharmacology (Berl). […] Wells were rinsed, blotted dry and separated, and residual radioactivity was counted by a gamma counter for 5 minutes per well.
# [8] = Debruyne et al. 2003; cited from earlier work
# [9] = test system: anxiety-like behavior of naive rats; assay: Defensive burying test after bilateral CRF infusion in the central nucleus of the amygdala; type: in vivo, rat; conditions: CRF 30 pmol total dose, bilateral intra-amygdala
# Experimental: To confirm that increases of CRF in the central nucleus of the amygdala elicit anxiety-like behavior, anxiety-like behavior was measured using the defensive burying test, after bilateral infusion of CRF (30 pmol total dose) or vehicle in the central nucleus of the amygdala of naive rats one minute before beginning of the burying test. CRF administered directly into the amygdala increased the time spent burying and decreased the latency to bury during the first 5 minutes after infusion (Table 2),
# Rats were anesthetized with an isoflurane-oxygen mixture, and 26-gauge stainless steel guide cannulas (Plastics One, Roanoke, Va.) aimed 2 mm above the central nucleus of the amygdala stereotaxically were implanted bilaterally: AP −2.6 mm; ML ±4.2 mm; V −5.2 mm, from dura, with flat skull (Paxinos and Watson, 1998). The guide cannulas were secured to the skull with dental cement and anchor screws, and guide cannulas were maintained with stylets. Intracerebral injections were administered with the use of injectors (33-gauge; Plastics One) that projected 2 mm past the guide cannula to the central nucleus of the amygdala. The injectors were attached to 70 cm of calibrated polyethylene-20 tubing preloaded with drug solution. This cohort of rats had been extensively handled previously in the context of a food intake study, in which they received administration of a CRF1 receptor antagonist subcutaneously and into the central nucleus of the amygdala in a Latin-square design. A washout period of 7 days was imposed before the present study with all subjects maintained on chow, during which animals were handled daily. Rats were randomly assigned to CRF vs. vehicle conditions balanced for previous diet history, which was statistically unrelated to performance in the defensive burying test. The CRF group (n=5) was infused bilaterally (30 pmol total dose) with a volume of 0.25 μL/side over 30 seconds using Hamilton microsyringes and 2 infusion pumps (Harvard Apparatus, Holliston, Mass.). The control group (n=5) received the same volume of PBS. Injectors were removed from guide cannulae 1 minute after the end of the infusions, and rats were returned to the home cage for 1 minute before being tested in the defensive burying test.
# [10] = nicotine-dependent rats, mecamylamine injection
compound,measurement,setting,value
"CCCCN(CC)c1nc(C)nc2c1c(C)cn2-c1c(C)cc(C)cc1C [CP-154,526]",cocaine self-administration,"[1]; 0.5 mg/kg/injection cocaine, rats",reduced
same,cocaine self-administration,"[1]; rats with limited daily drug access (1 h/day), pretreatment",dose-dependent decreases
same,food-reinforced responding,"[1]; rats, pretreatment",does not affect
same,cocaine-induced conditioned place preference,[2],reduced
CCC(CC)Nc1cc(C)nc2c(-c3ccc(OC)cc3C)c(C)nn12 [DMP904],ACTH release,[3],inhibited
same,stress-induced increase of plasma corticosterone,[4],dose-dependently inhibited
same,IC50,[5],2.14 nM
"CNC1(C)C2CCC(C2)C1(C)C (centres unmarked) [mecamylamine, reference compound]",Burying,[6]; nicotine pump,271 ± 46 s
same,Freezing,[6]; nicotine pump,1 ± 1 s
same,Grooming,[6]; nicotine pump,16 ± 5 s
same,Latency to bury,[6]; nicotine pump,31 ± 9 s
same,Rearing,[6]; nicotine pump,105 ± 25 s
same,Resting,[6]; nicotine pump,49 ± 21 s
same,change in latency to bury compared to vehicle injection,[6]; [10],−70%
same,change in time spent burying compared to vehicle injection,[6]; [10],+243%
same,anxiety-like behavior,"[6]; non-dependent rats, mecamylamine injection",did not alter
same,Burying,[6]; saline pump,135 ± 39 s
same,Freezing,[6]; saline pump,1 ± 1 s
same,Grooming,[6]; saline pump,30 ± 12 s
same,Latency to bury,[6]; saline pump,87 ± 25 s
same,Rearing,[6]; saline pump,118 ± 14 s
same,Resting,[6]; saline pump,67 ± 24 s
same,increase of CRF-L-IR in the central amygdala compared with baseline,[7]; nicotine-dependent rats,over 500%
same,increase of CRF-L-IR in the central amygdala,[7]; saline-treated (non-dependent) rats,not observed
same,pharmacokinetic half-life,[8],about 1 hour
"CRF: Corticotropin-releasing factor, a 41 amino-acid residue peptide; rat/human CRF infused into the central nucleus of the amygdala (SEEPPISLDLTFHLLREVLEMARAEQLAQQAHSNRKLMEII; ends and bridges not checked; UniProt P06850 154-194, looked up)",Grooming,[9],30 ± 27 s
same,Latency to bury,[9],165 ± 91 s
same,Rearing,[9],91 ± 15 s
same,Burying,[9]; first 5 minutes after infusion,7.1 ± 4.7 s
